Reference: patent publication US20260295053A1, “COMPOUNDS FOR DEGRADATION AND INHIBITION OF KRAS (G12D) PROTEIN” (Shenzhen Ionova Life Science Co., Ltd., priority 2023, published 2026)

Columns and labels:
KRAS (G12D) = target: T1, KRAS (G12D) (Homo sapiens, UniProt P01116, G12D); assay: KRAS (G12D) cellular degradation assay in AsPC-1 cells; assay type: cell-based; details: 24 hours, antibody fluorescence (Odyssey CLX), DC50 half-maximal degradation concentration
T1 construct: in-cell western with KRAS G12D antibody after 24 h
T1 sequence (P01116 1-188 isoform P01116-2 G12D): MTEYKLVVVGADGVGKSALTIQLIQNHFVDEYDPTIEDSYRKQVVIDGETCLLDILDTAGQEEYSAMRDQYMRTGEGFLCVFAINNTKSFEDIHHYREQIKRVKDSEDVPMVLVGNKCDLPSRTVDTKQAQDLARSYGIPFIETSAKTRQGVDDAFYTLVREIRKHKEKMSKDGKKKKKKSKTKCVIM
Procedure, shortened: (§1)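 AsPC-1 cells were seeded at 22,000/well for degradation and 3,500/well for proliferation. Compounds in 1:3 dilutions ([…] to 1.5 nM final) ran 24 h for degradation, read by in-cell immunofluorescence of KRAS G12D normalised to β-actin, and 6 days for proliferation (CellTiter Glo luminescence). DC50/IC50 came from dose-response fits.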

AsPC-1 cells = assay: AsPC-1 cell proliferation assay (CellTiter Glo); assay type: cell-based; details: 6 days
Procedure, shortened: as §1

SMILES	DC50 (KRAS (G12D))	IC50 (AsPC-1 cells; Homo sapiens, ASPC1, 144 h)	IC50 (AsPC-1 cells)
CO[C@H]1C[C@H](Oc2nc(N(C)[C@@H]3CCNC3)c3cc(C4CC4)c(-c4c(C)c(F)cc5[nH]ncc45)c(OCc4ccc(-c5cn([C@H](C(=O)N6C[C@H](O)C[C@H]6C(=O)N[C@@H](CO)c6ccc(-c7scnc7C)cc6)C(C)C)nn5)cc4)c3n2)C1 [Example 203, (2S,4R)-1-((2S)-2-(4-(4-(((6-cyclopropyl-7-(6-fluoro-5-methyl-1H-indazol-4-yl)-2-((1r,3R)-3-methoxycyclobutoxy)-4-(methyl((R)-pyrrolidin-3-yl)amino)quinazolin-8-yl)oxy)methyl)phenyl)-1H-1,2,3-triazol-1-yl)-3-methylbutanoyl)-4-hydroxy-N—((R)-2-hydroxy-1-(4-(4-methylthiazol-5-yl)phenyl)ethyl)pyrrolidine-2-carboxamide]	< 10 nM	< 10 nM	
CO[C@@H](C)COc1nc(N2C[C@@H]3C[C@H]2CN3)c2cc(C3CC3)c(-c3c(C)c(F)cc4[nH]ncc34)c(OCc3ccc(-c4cn([C@H](C(=O)N5C[C@H](O)C[C@H]5C(=O)N[C@H](C#Cc5cccc(F)c5)CO)C(C)C)nn4)cc3)c2n1 [Example 77, (2S,4R)-1-((2S)-2-(4-(4-(((4-((1S,4S)-2,5-diazabicyclo[2.2.1]heptan-2-yl)-6-cyclopropyl-7-(6-fluoro-5-methyl-1H-indazol-4-yl)-2-((S)-2-methoxypropoxy)quinazolin-8-yl)oxy)methyl)phenyl)-1H-1,2,3-triazol-1-yl)-3-methylbutanoyl)-N—((R)-4-(3-fluorophenyl)-1-hydroxybut-3-yn-2-yl)-4-hydroxypyrrolidine-2-carboxamide]	< 10 nM	< 10 nM	
CCn1nccc1-c1ccc([C@@H](NC(=O)[C@@H]2C[C@@H](O)CN2C(=O)[C@H](C(C)C)n2cc(-c3ccc(COc4c(-c5c(C)c(F)cc6[nH]ncc56)c(C5CC5)cc5c(N(C)[C@H]6CCNC6)nc(O[C@H]6C[C@H](OC)C6)nc45)cc3)nn2)[C@H](C)O)cc1 [Example 170, (2S,4R)-1-((2S)-2-(4-(4-(((6-cyclopropyl-7-(6-fluoro-5-methyl-1H-indazol-4-yl)-2-((1r,3S)-3-methoxycyclobutoxy)-4-(methyl((S)-pyrrolidin-3-yl)amino)quinazolin-8-yl)oxy)methyl)phenyl)-1H-1,2,3-triazol-1-yl)-3-methylbutanoyl)-N-((1R,2S)-1-(4-(1-ethyl-1H-pyrazol-5-yl)phenyl)-2-hydroxypropyl)-4-hydroxypyrrolidine-2-carboxamide]	< 10 nM	< 10 nM	
CO[C@@H](C)COc1nc(N2C[C@@H]3C[C@H]2CN3)c2cc(C3CC3)c(-c3c(C)c(F)cc4[nH]ncc34)c(OCc3ccc(-c4cn([C@H](C(=O)N5C[C@H](O)C[C@H]5C(=O)N[C@H](C#Cc5scnc5C)CO)C(C)C)nn4)cc3)c2n1 [Example 41, (2S,4R)-1-((2S)-2-(4-(4-(((4-((1S,4S)-2,5-diazabicyclo[2.2.1]heptan-2-yl)-6-cyclopropyl-7-(6-fluoro-5-methyl-1H-indazol-4-yl)-2-((S)-2-methoxypropoxy)quinazolin-8-yl)oxy)methyl)phenyl)-1H-1,2,3-triazol-1-yl)-3-methylbutanoyl)-4-hydroxy-N—((R)-1-hydroxy-4-(4-methylthiazol-5-yl)but-3-yn-2-yl)pyrrolidine-2-carboxamide]	< 10 nM	< 10 nM	
CCn1nccc1-c1ccc([C@@H](NC(=O)[C@@H]2C[C@@H](O)CN2C(=O)[C@H](C(C)C)n2cc(-c3ccc(COc4c(-c5c(C)c(F)cc6[nH]ncc56)c(C5CC5)cc5c(N(C)[C@H]6CCNC6)nc(OC[C@H](C)OC)nc45)cc3)nn2)[C@H](C)O)c2c1CC2 [Example 149, (2S,4R)-1-((2S)-2-(4-(4-(((6-cyclopropyl-7-(6-fluoro-5-methyl-1H-indazol-4-yl)-2-((S)-2-methoxypropoxy)-4-(methyl((S)-pyrrolidin-3-yl)amino)quinazolin-8-yl)oxy)methyl)phenyl)-1H-1,2,3-triazol-1-yl)-3-methylbutanoyl)-N-((1R,2S)-1-(5-(1-ethyl-1H-pyrazol-5-yl)bicyclo[4.2.0]octa-1(6),2,4-trien-2-yl)-2-hydroxypropyl)-4-hydroxypyrrolidine-2-carboxamide]	< 10 nM	< 10 nM	
CCn1nccc1-c1cc(F)c([C@@H](NC(=O)[C@@H]2C[C@@H](O)CN2C(=O)[C@H](C(C)C)n2cc(-c3ccc(COc4c(-c5c(C)c(F)cc6[nH]ncc56)c(C5CC5)cc5c(N6C[C@@H]7C[C@H]6CN7)nc(O[C@H]6C[C@H](OC)C6)nc45)cc3)nn2)[C@H](C)O)c(F)c1 [Example 196, (2S,4R)-1-((2S)-2-(4-(4-(((4-((1S,4S)-2,5-diazabicyclo[2.2.1]heptan-2-yl)-6-cyclopropyl-7-(6-fluoro-5-methyl-1H-indazol-4-yl)-2-((1r,3S)-3-methoxycyclobutoxy)quinazolin-8-yl)oxy)methyl)phenyl)-1H-1,2,3-triazol-1-yl)-3-methylbutanoyl)-N-((1R,2S)-1-(4-(1-ethyl-1H-pyrazol-5-yl)-2,6-difluorophenyl)-2-hydroxypropyl)-4-hydroxypyrrolidine-2-carboxamide]	10 to 100 nM	10 to 100 nM	

Results, then the molecule that gave them:

DC50 (KRAS (G12D))	IC50 (AsPC-1 cells; Homo sapiens, ASPC1, 144 h)	IC50 (AsPC-1 cells)	SMILES
< 10 nM	< 10 nM		CCn1nccc1-c1ccc([C@@H](NC(=O)[C@@H]2C[C@@H](O)CN2C(=O)[C@H](C(C)C)n2cc(-c3ccc(COc4c(-c5c(C)c(F)cc6[nH]ncc56)c(C5CC5)cc5c(N6C[C@@H]7C[C@H]6CN7)nc(OC6CC7COCC7C6)nc45)cc3)nn2)[C@H](C)O)cc1 (stereo partly drawn) [Example 115, (2S,4R)-1-((2S)-2-(4-(4-(((4-((1S,4S)-2,5-diazabicyclo[2.2.1]heptan-2-yl)-6-cyclopropyl-7-(6-fluoro-5-methyl-1H-indazol-4-yl)-2-((hexahydro-1H-cyclopenta[c]furan-5-yl)oxy)quinazolin-8-yl)oxy)methyl)phenyl)-1H-1,2,3-triazol-1-yl)-3-methylbutanoyl)-N-((1R,2S)-1-(4-(1-ethyl-1H-pyrazol-5-yl)phenyl)-2-hydroxypropyl)-4-hydroxypyrrolidine-2-carboxamide]
10 to 100 nM	10 to 100 nM		CO[C@@H](C)COc1nc(N2C[C@H]3C[C@@H]2CN3)c2cc(C3CC3)c(-c3c(C)c(F)cc4n[nH]cc34)c(OCc3ccc(-c4cn([C@H](C(=O)N5C[C@H](O)C[C@H]5C(=O)N[C@@H](CO)c5ccc(-c6c(C)noc6C)cc5)C(C)C)nn4)cc3)c2n1 (single isomer, unassigned) [Example 6A]
10 to 100 nM	10 to 100 nM		CCn1nccc1-c1ccc([C@H](CO)NC(=O)[C@@H]2C[C@@H](O)CN2C(=O)[C@H](C(C)C)n2cc(-c3ccc(COc4c(-c5c(C)c(F)cc6[nH]ncc56)c(C5CC5)cc5c(N6CC7CCC(C6)N7)nc(OC[C@H](C)OC)nc45)cc3)nn2)cc1 (single isomer, unassigned) [Example 13A]
< 10 nM	< 10 nM		CCn1nccc1-c1ccc([C@H](CO)NC(=O)[C@@H]2C[C@@H](O)CN2C(=O)[C@H](C(C)C)n2cc(-c3ccc(COc4c(-c5c(C)c(F)cc6[nH]ncc56)c(C5CC5)cc5c(N6C[C@@H]7C[C@H]6CN7)nc(OC6CCC(OC)C6)nc45)cc3)nn2)cc1 (stereo partly drawn) [Example 86, (2S,4R)-1-((2S)-2-(4-(4-(((4-((1S,4S)-2,5-diazabicyclo[2.2.1]heptan-2-yl)-6-cyclopropyl-7-(6-fluoro-5-methyl-1H-indazol-4-yl)-2-((3-methoxycyclopentyl)oxy)quinazolin-8-yl)oxy)methyl)phenyl)-1H-1,2,3-triazol-1-yl)-3-methylbutanoyl)-N—((R)-1-(4-(1-ethyl-1H-pyrazol-5-yl)phenyl)-2-hydroxyethyl)-4-hydroxypyrrolidine-2-carboxamide]
< 10 nM		< 10 nM	CCn1nccc1-c1ccc([C@@H](NC(=O)[C@@H]2C[C@@H](O)CN2C(=O)[C@H](C(C)C)n2cc(-c3ccc(COc4c(-c5c(C)c(F)cc6[nH]ncc56)c(C5CC5)cc5c(N6C[C@@H]7C[C@H]6CN7)nc(OCC(OC)C(F)F)nc45)cc3)nn2)[C@H](C)O)cc1 (stereo partly drawn) [Example 122, (2S,4R)-1-((2S)-2-(4-(4-(((4-((1S,4S)-2,5-diazabicyclo[2.2.1]heptan-2-yl)-6-cyclopropyl-2-(3,3-difluoro-2-methoxypropoxy)-7-(6-fluoro-5-methyl-1H-indazol-4-yl)quinazolin-8-yl)oxy)methyl)phenyl)-1H-1,2,3-triazol-1-yl)-3-methylbutanoyl)-N-((1R,2S)-1-(4-(1-ethyl-1H-pyrazol-5-yl)phenyl)-2-hydroxypropyl)-4-hydroxypyrrolidine-2-carboxamide]
< 10 nM	< 10 nM		CCn1nccc1-c1ccc([C@@H](NC(=O)[C@@H]2C[C@@H](O)CN2C(=O)[C@H](C(C)C)n2cc(-c3ccc(COc4c(-c5c(C)c(F)cc6[nH]ncc56)c(C5CC5)cc5c(N6C[C@@H]7C[C@H]6CN7)nc(OC6CCC(OC)CC6)nc45)cc3)nn2)[C@@H](C)O)cc1 (stereo partly drawn) [Example 127, (2S,4R)-1-((2S)-2-(4-(4-(((4-((1S,4S)-2,5-diazabicyclo[2.2.1]heptan-2-yl)-6-cyclopropyl-7-(6-fluoro-5-methyl-1H-indazol-4-yl)-2-((4-methoxycyclohexyl)oxy)quinazolin-8-yl)oxy)methyl)phenyl)-1H-1,2,3-triazol-1-yl)-3-methylbutanoyl)-N-((1R,2R)-1-(4-(1-ethyl-1H-pyrazol-5-yl)phenyl)-2-hydroxypropyl)-4-hydroxypyrrolidine-2-carboxamide]
